What all share (format): cell-based, human
Experiment [1] concerns PARP cleavage in Huh7 and Mahlavu cells. Kind of experiment: Western blot, PARP cleavage (marker of apoptosis). The note with it: 24 h. As to the method:
Human liver cancer cells Mahlavu and Huh7 were treated with the compounds according to the IC50 values obtained from RT-CES experiments or DMSO controls for 72hr. […] We further assessed the effects of the selected chalcones 1, 9, and 11 on the cell cycle progression analysis of liver cancer cells. Human liver cancer cells Mahlavu and Huh7 were treated with the compounds according to the IC50 values obtained from RT-CES for 72 h. Then the DNA in the treated cells were stained with propidium iodide and analyzed with fluorescent-activated cell sorter. […] In order to confirm the induction of apoptosis in human liver cancer cells treated with the chalcones, cleavage of PARP protein (marker of apoptosis) was investigated.
Figure 3 Cell death induced by the chalcones. (A) Nuclear staining of the liver cancer cells treated with the chalcones. Human liver cancer cells (Huh7 and Mahlavu) were treated with the IC50 concentrations of the chalcones 1, 9, 11. After 72 h of incubation with the compounds or DMSO control, Hoechst (33258) staining was performed. Images were taken with fluorescent microscope (×40). Due to the strong cytotoxic activities of the chalcones the number of the cells in objective area was much less than DMSO controls. (B) Cell cycle distribution of liver cancer cells. Huh7 and Mahlavu cells were treated for 72 h with IC50 concentrations of the compounds or DMSO control. […]

Experiment [2] deals with p21 in Mahlavu cells. In words: Western blot, p21 protein levels. The note with it: IC50 concentrations, 24 h. As to the method: (§1) Figure 4 Proteins targeted by the compounds. Human liver cancer cells (Mahlavu) were treated with the IC50 concentrations of the selected compounds or DMSO control for 24 h. […] (B–D) Quantification of the results using ImageJ software. (E) Schematic representation of the molecular mechanism of action of the compounds. Blocked signaling is crossed.
(§2) In the literature, it was shown that the anti-cancer effect of chalcones on uterus leiomyoma cells was through an increase in p21 protein[35]. Thus we also examined the levels of p21 in our cells. Furthermore, p21 is also a downstream element of Akt pathway. […] Therefore, the effect on Rb protein, which is also a downstream element of p21, was investigated in the presence of the chalcones 1, 9 and 11.
(§3) Poorly differentiated liver cancer cell line Mahlavu cells were cultured in 100 mm culture dish for 24 h. […] Anti-PARP antibody (Cell Signaling, 9532), pAkt (Ser473) antibody (Cell Signaling, 9271), Akt antibody (Cell Signaling, 9272), pNFkB-p65 (Ser468) antibody (Snat Cruz, sc101750), p21 antibody (Millipore, 05345), pRb (Ser807/811) antibody (Cell Signaling, 9308), Rb antibody (Santa Cruz, sc102), actin antibody (Sigma, A5441) and calnexin antibody (Sigma, C4731) were used as primary antibodies. Anti-rabbit (6154) and anti-mouse (0168) secondary antibodies were used. ImageJ tool ([42]) used for protein band intensity comparison. […]

For experiment [3], the system named is pRb (Ser807/811) in Mahlavu cells. Kind of experiment: Western blot, phosphorylated Rb protein levels. The note with it: IC50 concentrations, 24 h. As to the method: as §1, §2, §3
Experiment [4] deals with pNFkB-p65 (Ser468) in Mahlavu cells. Kind of experiment: Western blot, phosphorylation of NFkB-p65. The note with it: IC50 concentrations, 24 h. As to the method:
as §1
NFB is a transcription factor which is a fundamental component of inflammation pathway. This protein has also crucial roles in cell proliferation and apoptosis, thus cancer progression. […] Since the inflammation is one of the hallmarks of cancer, we also investigated the effect of our compounds on NFB protein. […] This form of NFB is the activated form which translocates into the nucleus to function as a transcription factor.
Poorly differentiated liver cancer cell line Mahlavu cells were cultured in 100 mm culture dish for 24 h. […] Anti-PARP antibody (Cell Signaling, 9532), pAkt (Ser473) antibody (Cell Signaling, 9271), Akt antibody (Cell Signaling, 9272), pNFkB-p65 (Ser468) antibody (Snat Cruz, sc101750), p21 antibody (Millipore, 05345), pRb (Ser807/811) antibody (Cell Signaling, 9308), Rb antibody (Santa Cruz, sc102), actin antibody (Sigma, A5441) and calnexin antibody (Sigma, C4731) were used as primary antibodies. Anti-rabbit (6154) and anti-mouse (0168) secondary antibodies were used. […]

As for `O=C(/C=C/c1ccc(Cl)cc1)c1ccccc1` [compound 11], in experiment [1], the PARP cleavage result is given as “PARP cleavage was present significantly”. Besides, in experiment [2], the p21 protein levels entry is “increased significantly”. Further, in experiment [3], the “phosphorylated Rb protein levels” value is “decreased significantly”. Further, in experiment [4], the “phosphorylation of NFB-p65 at Ser468” value is “decreased significantly”.
Regarding `O=C(/C=C/c1ccccc1)c1ccccc1` [compound 9], in experiment [1], the PARP cleavage entry is on record as “PARP cleavage was present significantly”. Further, the p21 protein levels result in experiment [2] is on record as “increased significantly”. Further, the “phosphorylated Rb protein levels” value in experiment [3] is listed as “decreased significantly”. Besides, in experiment [4], the “phosphorylation of NFB-p65 at Ser468” value was “decreased significantly”.

These data come from paper PMC7367369, “A small library of chalcones induce liver cancer cell death through Akt phosphorylation inhibition” (Scientific Reports, 2020).
